In ChEMBL document CHEMBL5365485 (J Med Chem, 2023):
Active and inactive are the calls of the source. No cut-off for these calls is given here.

Tests used:
[1] = target: Hypoxia-inducible factor 1-alpha (Homo sapiens) (UniProt Q16665); assay: Induction of HIF-1alpha transcription activity in human HeLa cells incubated for 32 hrs by HRE-luciferase based assay; format: cell-based
[2] = target: Hypoxia-inducible factor 1-alpha (Homo sapiens) (UniProt Q16665); assay: Induction of HIF-1alpha transcription activity in human U2OS cells incubated for 32 hrs by HRE-luciferase based assay; format: cell-based
[3] = target: Hypoxia-inducible factor 1-alpha (Homo sapiens) (UniProt Q16665); assay: Induction of HIF-1alpha transcription activity in human HeLa cells assessed as increase in CA9 mRNA level at 50 uM incubated for 16 hrs by RT-qPCR analysis; format: cell-based
[4] = target: Hypoxia-inducible factor 1-alpha (Homo sapiens) (UniProt Q16665); assay: Stabilization of HIF-1alpha in human HeLa cells at 50 uM incubated for 2 hrs by Western blot analysis relative to VH298; format: cell-based
[5] = target: Hypoxia-inducible factor 1-alpha (Homo sapiens) (UniProt Q16665); assay: Stabilization of HIF-1alpha in HEK293 cells at 50 uM incubated for 2 hrs by Western blot analysis relative to VH298; format: cell-based
[6] = target: Hypoxia-inducible factor 1-alpha (Homo sapiens) (UniProt Q16665); assay: Stabilization of hydroxylated HIF-1alpha in human HeLa cells at 50 uM incubated for 2 hrs by Western blot analysis relative to VH298; format: cell-based
[7] = target: Hypoxia-inducible factor 1-alpha (Homo sapiens) (UniProt Q16665); assay: Stabilization of hydroxylated HIF-1alpha in HEK293 cells at 50 uM incubated for 2 hrs by Western blot analysis relative to VH298; format: cell-based
[8] = target: Von Hippel-Lindau disease tumor suppressor/Elongin B/Elongin C (Homo sapiens) (UniProt P40337+Q15370+Q15369); assay: Binding affinity to biotinylated VHL/Elongin B/Elongin C (unknown origin) immobilized in SA sensor chip assessed as second-order on-rate constant for association (Kon) by SPR analysis; format: protein-complex assay
Von Hippel-Lindau disease tumor suppressor/Elongin B/Elongin C (Homo sapiens), sequence (P40337 whole entry, looked up): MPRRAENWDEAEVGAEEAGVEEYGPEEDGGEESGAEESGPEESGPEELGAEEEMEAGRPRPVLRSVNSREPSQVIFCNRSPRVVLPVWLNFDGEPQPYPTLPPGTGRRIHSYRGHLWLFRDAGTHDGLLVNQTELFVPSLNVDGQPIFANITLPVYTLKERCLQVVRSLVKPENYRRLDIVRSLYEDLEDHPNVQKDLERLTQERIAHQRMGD
Von Hippel-Lindau disease tumor suppressor/Elongin B/Elongin C (Homo sapiens), sequence (Q15369 whole entry, looked up): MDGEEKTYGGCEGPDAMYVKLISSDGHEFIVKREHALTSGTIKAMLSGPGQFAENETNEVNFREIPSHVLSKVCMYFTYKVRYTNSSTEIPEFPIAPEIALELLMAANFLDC
Von Hippel-Lindau disease tumor suppressor/Elongin B/Elongin C (Homo sapiens), sequence (Q15370 whole entry, looked up): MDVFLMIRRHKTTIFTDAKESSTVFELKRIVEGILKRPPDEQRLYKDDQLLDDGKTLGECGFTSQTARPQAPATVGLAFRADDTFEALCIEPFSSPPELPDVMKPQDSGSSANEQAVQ

HeLa [9] = assay: Upregulation of HIF-1alpha level in human HeLa cells at 10 to 100 uM incubated for 1 hr by immunoblot analysis; format: functional, cell-based; settings: dose 10-100 µM
HeLa [10] = assay: Upregulation of hydroxylated HIF-1alpha level in human HeLa cells at 10 to 100 uM incubated for 1 hr by immunoblot analysis; format: functional, cell-based; settings: dose 10-100 µM
[11] = target: T1, von Hippel-Lindau disease tumor suppressor (Homo sapiens, UniProt P40337); assay: Inhibition of NanoLuc-fused VHL (unknown origin) transfected in live HEK293 cells using NanoGlo substrate incubated for 30 mins by tracer based NanoBRET assay; format: cell-based
T1 sequence (P40337 whole entry, the tested form may be a part): as the sequence (P40337 whole entry, looked up) above

[12] = target: T1, von Hippel-Lindau disease tumor suppressor; assay: Inhibition of NanoLuc-fused VHL (unknown origin) transfected in permeabilized HEK293 cells using NanoGlo substrate incubated for 30 mins by tracer based NanoBRET assay; format: cell-based
[13] = target: T2, Von Hippel-Lindau disease tumor suppressor/Elongin B/Elongin C (Homo sapiens, UniProt P40337); assay: Binding affinity to VHL (54 to 213 residues)/N-terminal Avi-tagged biotinylated-Elongin B (1 to 104 residues)/Elongin C (17 to 112 residues) (unknown origin) expressed in Escherichia coli cells immobilized in SA sensor chip assessed as dissociation constant by SPR analysis
T2 sequence (P40337 whole entry, looked up, the tested form may be a part): as the sequence (P40337 whole entry, looked up) above

[14] = target: T2, Von Hippel-Lindau disease tumor suppressor/Elongin B/Elongin C; assay: Binding affinity to N-terminal His6-tagged VHL (54 to 213 residues)/Elongin B (1 to 104 residues)/Elongin C (17 to 112 residues) (unknown origin) expressed in Escherichia coli BL21(DE3) cells assessed as dissociation constant by ITC analysis
[15] = target: T2, Von Hippel-Lindau disease tumor suppressor/Elongin B/Elongin C; assay: Binding affinity to biotinylated VHL/Elongin B/Elongin C (unknown origin) immobilized in SA sensor chip assessed as dissociation constant by SPR analysis; format: protein-complex assay
[16] = target: T2, Von Hippel-Lindau disease tumor suppressor/Elongin B/Elongin C; assay: Inhibition of VHL/Elongin B/Elongin C (unknown origin) using FAM-DEALA-Hyp-YIPD as substrate by fluorescence polarization assay; format: protein-complex assay
HeLa [17] = assay: Upregulation of HIF-1alpha level in human HeLa cells at 50 uM incubated for 1 hr by immunoblot analysis; format: functional, cell-based
HeLa [18] = assay: Upregulation of hydroxylated HIF-1alpha level in human HeLa cells at 50 uM incubated for 1 hr by immunoblot analysis; format: functional, cell-based
[19] = target: Hypoxia-inducible factor 1-alpha (Homo sapiens) (UniProt Q16665); assay: Induction of HIF-1alpha transcription activity in human HeLa cells at 150 uM incubated for 32 hrs by HRE-luciferase based assay; format: cell-based
[20] = target: Hypoxia-inducible factor 1-alpha (Homo sapiens) (UniProt Q16665); assay: Induction of HIF-1alpha transcription activity in human U2OS cells at 150 uM incubated for 32 hrs by HRE-luciferase based assay; format: cell-based

Hypoxia-inducible factor 1-alpha (Homo sapiens), sequence (Q16665 whole entry, looked up): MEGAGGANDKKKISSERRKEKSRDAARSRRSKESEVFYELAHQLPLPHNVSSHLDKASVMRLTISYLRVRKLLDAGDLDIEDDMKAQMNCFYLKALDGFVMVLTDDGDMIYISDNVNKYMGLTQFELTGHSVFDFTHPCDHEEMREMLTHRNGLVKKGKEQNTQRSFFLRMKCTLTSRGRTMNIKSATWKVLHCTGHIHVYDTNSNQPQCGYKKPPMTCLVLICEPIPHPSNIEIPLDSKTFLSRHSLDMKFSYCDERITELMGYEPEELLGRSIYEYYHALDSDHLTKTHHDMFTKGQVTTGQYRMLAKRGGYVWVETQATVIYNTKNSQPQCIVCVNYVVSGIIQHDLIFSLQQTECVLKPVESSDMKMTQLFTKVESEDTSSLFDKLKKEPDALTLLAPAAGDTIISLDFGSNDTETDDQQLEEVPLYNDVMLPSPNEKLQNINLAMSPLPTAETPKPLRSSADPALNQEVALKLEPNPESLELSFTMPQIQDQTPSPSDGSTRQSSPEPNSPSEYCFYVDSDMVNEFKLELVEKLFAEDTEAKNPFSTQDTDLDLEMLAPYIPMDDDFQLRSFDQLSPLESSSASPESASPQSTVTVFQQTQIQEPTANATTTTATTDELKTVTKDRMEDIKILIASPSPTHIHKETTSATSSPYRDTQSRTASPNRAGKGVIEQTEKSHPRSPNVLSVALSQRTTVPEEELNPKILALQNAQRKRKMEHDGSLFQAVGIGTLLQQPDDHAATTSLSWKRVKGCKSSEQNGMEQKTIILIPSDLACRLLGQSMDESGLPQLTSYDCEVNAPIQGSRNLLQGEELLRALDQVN

Activity [4] | Activity [5] | Activity [6] | Activity [7] | K [8] | Structure (SMILES) | other results
155% | 90% | 221% | 110% | – | Cc1cc(-c2scnc2C)ccc1[C@H](C)NC(=O)[C@@H]1C[C@@H](O)CN1C(=O)[C@@H](NC(=O)C1(C#N)CC1)C(C)(C)C | –
124% | 110% | 153% | 76% | 1 10^6/M/s | Cc1cc(-c2scnc2C)c(F)cc1CNC(=O)[C@@H]1C[C@@H](O)CN1C(=O)[C@@H](NC(=O)C1(F)CC1)C(C)(C)C | Kd [15]: 72 nM
155% | 152% | 217% | 137% | 1 10^6/M/s | Cc1cc(-c2scnc2C)c(F)cc1[C@H](C)NC(=O)[C@@H]1C[C@@H](O)CN1C(=O)[C@@H](NC(=O)C1(F)CC1)C(C)(C)C | IC50 [11]: 366 nM
105% | 48% | 123% | 52% | – | Cc1ncsc1-c1ccc([C@H](C)NC(=O)[C@@H]2C[C@@H](O)CN2C(=O)[C@@H](NC(=O)C2(C#N)CC2)C(C)(C)C)cc1F | –

Second part, the compound before the results:

Structure (SMILES) | Activity [4] | Activity [5] | Activity [6] | Activity [7] | K [8] | other results
Cc1ncsc1-c1ccc(CNC(=O)[C@@H]2C[C@@H](O)CN2C(=O)[C@@H](NC(=O)C2(C#N)CC2)C(C)(C)C)cc1 | – | – | – | – | – | Activity [1]: Dose-Dependent Effect; Activity [2]: Dose-Dependent Effect; Activity [3]: Active
Cc1cc(-c2scnc2C)ccc1CNC(=O)[C@@H]1C[C@@H](O)CN1C(=O)[C@@H](NC(=O)C1(C#N)CC1)C(C)(C)C | 89% | 78% | 88% | 66% | – | –
Cc1cc(-c2scnc2C)ccc1CNC(=O)[C@@H]1C[C@@H](O)CN1C(=O)[C@@H](NC(=O)C1(F)CC1)C(C)(C)C | 116% | 78% | 120% | 69% | 1 10^6/M/s | –
Cc1ncsc1-c1ccc([C@H](C)NC(=O)[C@@H]2C[C@@H](O)CN2C(=O)[C@@H](NC(=O)C2(F)CC2)C(C)(C)C)cc1F | 120% | 92% | 177% | 102% | 1 10^6/M/s | –
Cc1cc(-c2scnc2C)ccc1[C@H](C)NC(=O)[C@@H]1C[C@@H](O)CN1C(=O)[C@@H](NC(=O)C1(F)CC1)C(C)(C)C | 182% | 224% | 263% | 208% | 1 10^6/M/s | Activity (HeLa [9]): Active; Activity (HeLa [10]): Active; IC50 [11]: 164 nM; IC50 [12]: 122 nM; Activity [1]: Dose-Dependent Effect; Activity [2]: Dose-Dependent Effect; Activity [3]: Active
CC(=O)N[C@H](C(=O)N1C[C@H](O)C[C@H]1C(=O)NCc1ccc(-c2scnc2C)c(C(F)(F)F)c1)C(C)(C)C | – | – | – | – | – | Kd [13]: 2990 nM
CC(=O)N[C@H](C(=O)N1C[C@H](O)[C@H](F)[C@H]1C(=O)NCc1ccc(-c2scnc2C)cc1)C(C)(C)C | – | – | – | – | – | Kd [14]: 244 nM
Cc1ncsc1-c1ccc(CNC(=O)[C@@H]2C[C@@H](O)CN2C(=O)Cc2cccc(N)c2C)cc1 | – | – | – | – | – | IC50 [16]: 900 nM
CC(=O)N[C@H](C(=O)N1C[C@H](O)C[C@H]1C(=O)NCc1ccc(-c2scnc2C)cc1C(F)(F)F)C(C)(C)C | – | – | – | – | – | Kd [13]: 268 nM
COc1cc(-c2scnc2C)c(F)cc1CNC(=O)[C@@H]1C[C@@H](O)CN1C(=O)[C@@H](NC(=O)C1(F)CC1)C(C)(C)C | 95% | 73% | 98% | 68% | 1 10^6/M/s | –
COc1cc(-c2scnc2C)c(F)cc1[C@H](C)NC(=O)[C@@H]1C[C@@H](O)CN1C(=O)[C@@H](NC(=O)C1(F)CC1)C(C)(C)C | 128% | 145% | 179% | 137% | – | Activity (HeLa [9]): Active; Activity (HeLa [10]): Active; Activity [1]: Dose-Dependent Effect; Activity [2]: Dose-Dependent Effect; Activity [3]: Active
Cc1ncsc1-c1ccc(CNC(=O)[C@@H]2C[C@@H](O)CN2C(=O)[C@@H](NC(=O)C2(C#N)CC2)C(C)(C)C)cc1F | 83% | 18% | 74% | 20% | – | –
Cc1ncsc1-c1ccc(CNC(=O)[C@@H]2C[C@H](O)CN2C(=O)[C@@H](NC(=O)C2(C#N)CC2)C(C)(C)C)cc1 | – | – | – | – | – | Activity (HeLa [17]): inactive; Activity (HeLa [18]): inactive; Activity [19]: inactive; Activity [20]: inactive
Cc1ncsc1-c1ccc(CNC(=O)[C@@H]2C[C@@H](O)CN2C(=O)[C@@H](NC(=O)C2(F)CC2)C(C)(C)C)cc1F | 107% | 89% | 108% | 75% | 1 10^6/M/s | –
